# Assay results: publication PMC11587507, “The Importance of Stereochemistry in 5-HT7R Modulation—A Case Study of Hydantoin Derivatives” (ACS Chemical Neuroscience, 2024)
# How the values were obtained:
# punished crossings = test: Four-plate test (FPT) in mice; format: in vivo
# Protocol: (§1) The behavioral experiments were performed on male BalbC mice weighing 20–25 g, n = 333. The animals were purchased from the Animal House at the Faculty of Pharmacy, Jagiellonian University Medical College, Krakow, Poland. Mice were kept in groups of ten in Makrolon type 3 cages (dimensions 26.5 × 15 × 42 cm). The animals were kept in an environmentally controlled room (ambient temperature 22 ± 2 °C; relative humidity 50–60%; 12:12 light: dark cycle; and lights on at 8:00). They were allowed to acclimatize with the environment enriched by nesting material, tooth grinding material, houses, and toys for 1 week before commencement of the experiments. During acclimatization, mice were accustomed to the presence of female experimenters and their appropriate manner of animals’ restraint, i.e., cupping each separate mouse in open hands, according to the 3Rs recommendations (handling).[50],[51] Standard laboratory food (Sniff M-Z) and filtered water were freely available. All the experiments were conducted in the light phase between 9 AM and 2 PM. Experimental groups consisted of 6–10 randomly selected animals, depending on the experiment, and each animal was used only once. The experiments were performed by an observer who was unaware of the treatment administered. All the experimental procedures with mice were carried out under EU Directive 2010/63/EU and were approved by the Local Ethics Commission for Animal Experiments of Jagiellonian University in Krakow (Approval nos.:297/2019).
# (§2) Compounds were injected once intraperitoneally (i.p.) 60 min before tests, at a volume of 10 mL/kg. Control animals received a vehicle injection according to the same schedule.
# The four-plate apparatus (Bioseb, Pinellas Park, USA) was used for tests. Following a 15 s habituation period, the animal’s motivation to explore a novel environment is suppressed by an electric foot shock (0.8 mA, 0.5 s) every time it moves from one plate to another during a 1 min test session. This action is referred to as a “punished crossing” and is followed by a 3 s shock interval, during which the animal can move across plates without receiving a shock.[53]
# dopamine D2LR = dopamine D2LR (Homo sapiens, UniProt P14416); test: Radioligand binding assay, [3H]-raclopride displacement; conditions: mean ± SD from two independent measurements; read-out: Ki D2
# Protocol: (§3) Cell pellets were thawed and homogenized in 10 vol of assay buffer using an Ultra Turrax tissue homogenizer and centrifuged twice at 35 000 g for 15 min at 4 °C, with incubation for 15 min at 37 °C in between. The composition of the assay buffers was as follows: for 5-HT1AR: 50 mM Tris HCl, 0.1 mM EDTA, 4 mM MgCl2, 10 μM pargyline and 0.1% ascorbate; for 5-HT2AR: 50 mM Tris HCl, 0.1 mM EDTA, 4 mM MgCl2 and 0.1% ascorbate; for 5- HT7bR: 50 mM Tris HCl, 4 mM MgCl2, […] and 0.1% ascorbate; and for dopamine D2LR: 50 mM Tris HCl, 1 mM EDTA, 4 mM MgCl2, 120 mM NaCl, 5 mM KCl, 1.5 mM CaCl2 and 0.1% ascorbate. All assays were incubated in a total volume of […] in 96-well microtiter plates for 1 h at 37 °C, except 5-HT2AR which was incubated at 27 °C. The process of equilibration was terminated by rapid filtration through Unifilter plates with a 96-well cell harvester, and radioactivity retained on the filters was quantified on a Microbeta plate reader (PerkinElmer, USA). For displacement studies, the assay samples contained as radioligands (PerkinElmer, USA): 2.5 nM [^3H]-8-OH-DPAT (135.2 Ci/mmol) for 5-HT1AR; 1 nM [3H]-ketanserin (53.4 Ci/mmol) for 5- HT2AR; 0.8 nM [3H]-5- CT (39.2 Ci/mmol) for 5-HT7R or 2.5 nM [3H]-raclopride (72 Ci/mmol) for D2LR. Nonspecific binding was defined with […] of 5-HT in 5-HT7R binding experiments, whereas […] were used in 5-HT2AR and D2L assays, respectively. Each compound was tested in triplicate at 7 concentrations (10^–10–10^–4 M). The inhibition constants (Ki) were calculated using the Cheng–Prusoff equation.[48] Results were expressed as means of at least two separate experiments.
# immobility time = test: Forced swim test (FST, Porsolt's test) in mice; format: in vivo; conditions: 60 min before test
# Protocol: as §1, §2
# The FST experiment was carried out according to the method of Porsolt et al.[52] The total duration of immobility was recorded during the last 4 min of this 6 min period. The reduction of immobility time compared to the control was a measure of antidepressant properties of the tested compound. A mouse was regarded as immobile when it remained floating on water, making only small movements to keep its head above it.
# locomotor activity = test: Spontaneous locomotor activity in mice; format: in vivo
# Protocol: as §1, §2
# Locomotor activity was recorded with an Opto M3 multichannel activity monitor (Columbus Instruments, Columbus, USA). […] According to the 3Rs recommendations,[54] locomotor activity was assessed for the minimal active doses obtained in FST and/or FPT to ensure that detected antidepressant-/anxiolytic-like effects are not the result of increased motility of mice.
# 5-HT1AR = target: T1, 5-HT1AR (Homo sapiens, UniProt P08908); test: Radioligand binding assay, [3H]-8-OH-DPAT displacement; conditions: mean ± SD from two independent measurements; read-out: Ki 5-HT1A
# T1 sequence (P08908 1-422): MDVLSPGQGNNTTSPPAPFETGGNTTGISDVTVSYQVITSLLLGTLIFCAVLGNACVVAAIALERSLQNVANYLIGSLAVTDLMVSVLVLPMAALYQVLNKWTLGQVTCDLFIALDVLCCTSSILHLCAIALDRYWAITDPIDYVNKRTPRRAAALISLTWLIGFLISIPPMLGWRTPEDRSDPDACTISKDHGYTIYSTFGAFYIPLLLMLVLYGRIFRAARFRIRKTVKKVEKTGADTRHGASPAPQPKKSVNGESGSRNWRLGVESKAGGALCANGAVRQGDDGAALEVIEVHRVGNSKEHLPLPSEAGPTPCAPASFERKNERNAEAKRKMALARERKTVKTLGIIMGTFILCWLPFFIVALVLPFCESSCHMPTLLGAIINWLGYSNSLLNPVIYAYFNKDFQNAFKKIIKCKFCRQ
# Protocol: as §3
# 5-HT2AR = 5-HT2AR (Homo sapiens, UniProt P28223); test: Radioligand binding assay, [3H]-ketanserin displacement; conditions: mean ± SD from two independent measurements; read-out: Ki 5-HT2A
# Protocol: as §3
# NK1 = target: T2, NK1 (Homo sapiens, UniProt P25103); test: NK1 screening at 1 µM (Eurofins Cerep); format: cell-based; conditions: read-out: NK1 % inhibition of control agonist response
# T2 construct: Eurofins Cerep
# Protocol: (§4) 1.In vitro evaluation towards another related protein target (GABA, NK 1)
# (§5) Table S2. Affinity results to GABA and NK 1 […]
# (§6) Screening at 1 µM Screening at 1 µM
# (§7) (% inhibition of control (% of inhibtion of control agonist response) specific binding) […]
# (§8) adata are presented as the mean ± SD from two independent measurements
# (§9) The above biological screening have been performed at Eurofins Cerep (2, rue du Professeur GARGOUÏL, B.P. 30001, 86 600 Celle l'Evescault, France according to previously described […]
# (§10) Tsuji, A. et al. (1988), Antimicrob. Agents Chemother., 32: 190-194.
# (§11) Eistetter, H.R. et al. (1992), Glia, 6: 89-95.
# (§12) Detailed parameters for NK1 assay:
# (§13) Detailed parameters for GABA (non-specific) assay: […]
# GABA (non-specific) = GABA (non-specific) binding screening at 1 µM (Eurofins Cerep)
# Protocol: as §4, §5, §6, §7, §8, §9, §10, §11, §12, §13
# 5-HT7R [1] = target: T3, 5-HT7R (Homo sapiens, UniProt P34969); test: Radioligand binding assay, [3H]-5-CT displacement; conditions: for Ki: mean ± SD from two independent measurements, read-out: Ki 5-HT7
# Protocol: as §3
# Target sequence in this assay (P34969 1-432): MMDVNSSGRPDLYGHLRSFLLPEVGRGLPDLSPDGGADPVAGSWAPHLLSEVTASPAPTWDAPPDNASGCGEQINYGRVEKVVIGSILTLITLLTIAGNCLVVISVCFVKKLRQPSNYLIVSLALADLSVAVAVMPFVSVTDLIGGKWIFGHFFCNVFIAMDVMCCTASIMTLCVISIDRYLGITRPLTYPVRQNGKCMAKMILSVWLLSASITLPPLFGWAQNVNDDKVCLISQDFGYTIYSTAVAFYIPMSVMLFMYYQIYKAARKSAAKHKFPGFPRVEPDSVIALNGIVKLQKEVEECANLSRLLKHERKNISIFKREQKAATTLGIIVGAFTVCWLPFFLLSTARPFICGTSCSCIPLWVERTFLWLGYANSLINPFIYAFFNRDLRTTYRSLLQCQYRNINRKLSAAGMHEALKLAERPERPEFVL
# 5-HT7R [2] = target: T3, 5-HT7R; test: cAMP functional assay (HTRF), antagonist effect, CHO cells; format: cell-based
# Protocol: The cAMP concentration was measured using the HTRF method. Adenylate cyclase activity was expressed as the percentage of the maximal effect obtained with 300 nM serotonin. The compounds were tested at 7 concentrations (10^–12–10^–6 M) in the h5-HT7 antagonist effect.
# Target sequence in this assay (P34969 1-445 isoform P34969-2): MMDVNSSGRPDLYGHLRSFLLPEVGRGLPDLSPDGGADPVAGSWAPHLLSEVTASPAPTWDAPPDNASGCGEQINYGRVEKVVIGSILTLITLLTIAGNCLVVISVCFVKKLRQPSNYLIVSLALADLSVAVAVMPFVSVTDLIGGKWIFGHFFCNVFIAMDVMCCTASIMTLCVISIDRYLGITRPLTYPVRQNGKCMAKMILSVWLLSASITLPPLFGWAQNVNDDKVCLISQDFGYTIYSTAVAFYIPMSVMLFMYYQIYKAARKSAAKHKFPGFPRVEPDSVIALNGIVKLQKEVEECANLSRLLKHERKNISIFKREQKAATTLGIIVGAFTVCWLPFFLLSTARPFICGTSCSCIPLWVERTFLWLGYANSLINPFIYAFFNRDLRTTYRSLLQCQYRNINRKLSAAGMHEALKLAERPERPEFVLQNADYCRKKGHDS
# dopamine D2LR, sequence (P14416 whole entry): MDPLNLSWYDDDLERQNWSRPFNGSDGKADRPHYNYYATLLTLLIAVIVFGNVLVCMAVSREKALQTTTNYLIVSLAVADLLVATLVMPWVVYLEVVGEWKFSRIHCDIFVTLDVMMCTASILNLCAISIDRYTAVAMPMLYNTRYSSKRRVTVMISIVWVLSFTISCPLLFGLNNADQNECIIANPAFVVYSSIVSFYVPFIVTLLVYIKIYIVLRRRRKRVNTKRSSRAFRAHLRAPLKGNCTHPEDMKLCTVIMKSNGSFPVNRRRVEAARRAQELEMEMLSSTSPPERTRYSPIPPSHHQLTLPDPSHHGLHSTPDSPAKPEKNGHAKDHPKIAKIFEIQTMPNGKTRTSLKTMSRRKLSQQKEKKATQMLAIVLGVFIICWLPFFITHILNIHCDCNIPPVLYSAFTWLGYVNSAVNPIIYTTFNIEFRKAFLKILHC
# 5-HT2AR, sequence (P28223 whole entry): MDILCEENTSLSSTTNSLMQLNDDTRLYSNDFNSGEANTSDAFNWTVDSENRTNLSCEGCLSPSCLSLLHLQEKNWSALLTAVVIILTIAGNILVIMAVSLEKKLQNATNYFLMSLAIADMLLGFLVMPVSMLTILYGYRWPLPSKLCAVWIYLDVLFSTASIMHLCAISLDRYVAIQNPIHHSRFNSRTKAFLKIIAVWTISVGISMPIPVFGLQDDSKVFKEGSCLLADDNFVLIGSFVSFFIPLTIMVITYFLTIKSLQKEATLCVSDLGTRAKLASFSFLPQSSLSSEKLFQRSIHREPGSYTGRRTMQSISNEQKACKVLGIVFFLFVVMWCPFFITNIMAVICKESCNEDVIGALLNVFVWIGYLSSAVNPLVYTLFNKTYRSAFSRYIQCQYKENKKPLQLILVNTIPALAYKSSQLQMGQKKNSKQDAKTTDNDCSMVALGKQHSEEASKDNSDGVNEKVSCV
# T2 sequence (P25103 whole entry): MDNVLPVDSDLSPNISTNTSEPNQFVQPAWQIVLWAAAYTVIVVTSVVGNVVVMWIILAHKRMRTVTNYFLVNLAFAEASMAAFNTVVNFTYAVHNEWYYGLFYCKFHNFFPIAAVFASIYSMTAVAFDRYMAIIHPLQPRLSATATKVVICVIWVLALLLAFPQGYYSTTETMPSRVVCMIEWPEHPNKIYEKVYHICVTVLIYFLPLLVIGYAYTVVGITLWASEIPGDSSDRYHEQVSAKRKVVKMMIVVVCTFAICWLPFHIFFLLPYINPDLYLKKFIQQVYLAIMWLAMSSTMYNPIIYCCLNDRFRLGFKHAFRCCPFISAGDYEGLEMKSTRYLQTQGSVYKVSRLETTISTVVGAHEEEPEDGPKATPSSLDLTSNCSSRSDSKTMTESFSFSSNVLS
smiles,measurement,setting,value
COc1ccccc1N1CCN(CC(O)CN2C(=O)NC(C)(c3ccc(F)cc3)C2=O)CC1 (centres unmarked) [Compound 1],anxiolytic-like activity,"punished crossings; i.p., all doses tested",inactive
same,Ki,dopamine D2LR,715 ± 163 nM
same,decrease of immobility time vs vehicle,immobility time; 2.5 mg/kg i.p.,about 32%
same,decrease of immobility time vs vehicle,immobility time; 5 mg/kg i.p.,~25%
same,locomotor activity number of crossings ± SEM during 1 min,locomotor activity; 2.5 mg/kg i.p.,10.50 ± 4.11; NS
same,locomotor activity number of crossings ± SEM during 60 min,locomotor activity; 2.5 mg/kg i.p.,183.75 ± 33.41; p < 0.001
same,Ki,5-HT1AR,121 ± 18 nM
"COc1ccccc1N1CCN(C[C@H](O)CN2C(=O)N[C@](C)(c3ccc(F)cc3)C2=O)CC1 [Compound 5.1, (R)-5-(4-Fluorophenyl)-3-((S)-2-hydroxy-3-(4-(2-methoxyphenyl)piperazin-1-yl)propyl)-5-methylimidazolidine-2,4-dione]",Ki,dopamine D2LR,462 ± 94 nM
same,Ki,5-HT1AR,939 ± 153 nM
"COc1ccccc1N1CCN(C[C@@H](O)CN2C(=O)N[C@](C)(c3ccc(F)cc3)C2=O)CC1 [Compound 5.2, (R)-5-(4-Fluorophenyl)-3-((R)-2-hydroxy-3-(4-(2-methoxyphenyl)piperazin-1-yl)propyl)-5-methylimidazolidine-2,4-dione]",Ki,dopamine D2LR,712 ± 101 nM
same,Ki,5-HT2AR,41100 nM
same,Ki,5-HT1AR,1880 ± 351 nM
"COc1ccccc1N1CCN(C[C@H](O)CN2C(=O)N[C@@](C)(c3ccc(F)cc3)C2=O)CC1 [Compound 5.3, (S)-5-(4-Fluorophenyl)-3-((S)-2-hydroxy-3-(4-(2-methoxyphenyl)piperazin-1-yl)propyl)-5-methylimidazolidine-2,4-dione]",Ki,dopamine D2LR,1110 ± 137 nM
same,Ki,5-HT1AR,219 ± 43 nM
"COc1ccccc1N1CCN(C[C@@H](O)CN2C(=O)N[C@@](C)(c3ccc(F)cc3)C2=O)CC1 [Compound 5.4, (S)-5-(4-Fluorophenyl)-3-((R)-2-hydroxy-3-(4-(2-methoxyphenyl)piperazin-1-yl)propyl)-5-methylimidazolidine-2,4-dione]",anxiolytic-like activity,"punished crossings; i.p., all doses tested",inactive
same,Ki,dopamine D2LR,888 ± 97 nM
same,inhibition at 1 µM,NK1,2.9%
same,Ki,5-HT2AR,21800 nM
same,decrease of immobility time vs vehicle,immobility time; 5 mg/kg i.p.,25%
same,decrease of immobility time vs vehicle,immobility time; 10 mg/kg i.p.,20%
same,locomotor activity number of crossings ± SEM during 3–6 min,locomotor activity; 5 mg/kg i.p.,138.75 ± 36.61; NS
same,locomotor activity number of crossings ± SEM during 1 min,locomotor activity; 5 mg/kg i.p.,18.50 ± 8.00; NS
same,locomotor activity number of crossings ± SEM during 60 min,locomotor activity; 5 mg/kg i.p.,716.25 ± 117.75; p < 0.001
same,GABA (non-specific) % of inhibition of control specific binding,GABA (non-specific),7%
same,Ki,5-HT1AR,306 ± 71 nM
"C[C@]1(c2ccc(F)cc2)NC(=O)N(C[C@@H](O)CN2CCN(C(c3ccccc3)c3ccccc3)CC2)C1=O [Compound 6.1, (R)-3-((S)-3-(4-Benzhydrylpiperazin-1-yl)-2-hydroxypropyl)-5-(4-fluorophenyl)-5-methylimidazolidine-2,4-dione]",Ki,dopamine D2LR,463 ± 75 nM
same,Ki,5-HT2AR,12300 nM
same,Ki,5-HT7R [1],2900 ± 461 nM
"C[C@]1(c2ccc(F)cc2)NC(=O)N(C[C@H](O)CN2CCN(C(c3ccccc3)c3ccccc3)CC2)C1=O [Compound 6.2, (R)-3-((R)-3-(4-Benzhydrylpiperazin-1-yl)-2-hydroxypropyl)-5-(4-fluorophenyl)-5-methylimidazolidine-2,4-dione]",Ki,dopamine D2LR,1520 ± 331 nM
same,Ki,5-HT2AR,11400 nM
same,Ki,5-HT7R [1],9090 ± 1700 nM
"C[C@@]1(c2ccc(F)cc2)NC(=O)N(C[C@@H](O)CN2CCN(C(c3ccccc3)c3ccccc3)CC2)C1=O [Compound 6.3, (S)-3-((S)-3-(4-Benzhydrylpiperazin-1-yl)-2-hydroxypropyl)-5-(4-fluorophenyl)-5-methylimidazolidine-2,4-dione]",Ki,dopamine D2LR,312 ± 52 nM
same,Ki,5-HT2AR,4130 ± 983 nM
same,Ki,5-HT7R [1],120 ± 27 nM
"C[C@@]1(c2ccc(F)cc2)NC(=O)N(C[C@H](O)CN2CCN(C(c3ccccc3)c3ccccc3)CC2)C1=O [Compound 6.4, (S)-3-((R)-3-(4-Benzhydrylpiperazin-1-yl)-2-hydroxypropyl)-5-(4-fluorophenyl)-5-methylimidazolidine-2,4-dione]",anxiolytic-like activity,punished crossings; 5 mg/kg i.p.,did not reach significant levels
same,anxiolytic-like activity,"punished crossings; doses of 1.25, 2.5 and 10 mg/kg i.p.",active
same,increase of number of punished crossings vs vehicle,"punished crossings; i.p., active doses",about 60%
same,Ki,dopamine D2LR,511 ± 96 nM
same,inhibition at 1 µM,NK1,-4.4%
same,Ki,5-HT2AR,5790 ± 1070 nM
same,Ki,5-HT7R [1],8 ± 3 nM
same,fold higher 5-HT7R affinity in comparison to 2,5-HT7R [1]; ratio of Ki values,~10 fold
same,decrease of immobility time vs vehicle,immobility time; 2.5 mg/kg i.p.,29%
same,intrinsic activity at 5-HT7R,5-HT7R [2]; cAMP functional test,antagonists
same,IC50,"5-HT7R [2]; cAMP, CHO cells, h5-HT7 antagonist effect vs 300 nM serotonin",113 ± 25 nM
same,Kb,"5-HT7R [2]; cAMP, CHO cells, h5-HT7 antagonist effect, read-out: Kb ± SEM",14 ± 3 nM
same,locomotor activity number of crossings ± SEM during 3–6 min,locomotor activity; 1.25 mg/kg i.p.,63.75 ± 25.93; NS
same,locomotor activity number of crossings ± SEM during 1 min,locomotor activity; 1.25 mg/kg i.p.,4.25 ± 0.46; NS
same,locomotor activity number of crossings ± SEM during 60 min,locomotor activity; 1.25 mg/kg i.p.,694.25 ± 78.90; NS
same,locomotor activity number of crossings ± SEM during 3–6 min,locomotor activity; 2.5 mg/kg i.p.,105.75 ± 49.57; NS
same,locomotor activity number of crossings ± SEM during 60 min,locomotor activity; 2.5 mg/kg i.p.,922.50 ± 74.78; p < 0.001
same,GABA (non-specific) % of inhibition of control specific binding,GABA (non-specific),26%
same,Ki,5-HT1AR,8930 ± 1840 nM
